Tested on: 935938-334-R-J1-PDC complex spheroid viability
Experiment: Anticancer human tumor 935938-334-R-J1-PDC patient-derived small intestine adenocarcinoma cell line growth inhibition [POLQ]
Details: for IC50: curve of first compound; for viability, T/C: stronger effect = lower value
In short: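 Three-cell-type spheroids modelling solid tumor plus stroma served as the readout system; POL inhibitors were tested individually and in combination, concentration ranges set by clinical Cmax where known.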

[1] = second compound 0.0316 µM, first compound 0.0316 µM
[2] = second compound 0.0316 µM, first compound 0.1 µM
[3] = second compound 0.0316 µM, first compound 0.316 µM
[4] = second compound 0.0316 µM, first compound 1 µM
[5] = second compound 0.0316 µM, first compound 3.16 µM
[6] = second compound 0.0316 µM, first compound 10 µM
[7] = second compound 0.1 µM, first compound 0.0316 µM
[8] = second compound 0.1 µM, first compound 0.1 µM
[9] = second compound 0.1 µM, first compound 0.316 µM
[10] = second compound 0.1 µM, first compound 1 µM
[11] = second compound 0.1 µM, first compound 3.16 µM
[12] = second compound 0.1 µM, first compound 10 µM
[13] = second compound 0.316 µM, first compound 0.0316 µM
[14] = second compound 0.316 µM, first compound 0.1 µM
[15] = second compound 0.316 µM, first compound 0.316 µM
[16] = second compound 0.316 µM, first compound 1 µM
[17] = second compound 0.316 µM, first compound 3.16 µM
[18] = second compound 0.316 µM, first compound 10 µM
[19] = second compound 1 µM, first compound 0.0316 µM
[20] = second compound 1 µM, first compound 0.1 µM
[21] = second compound 1 µM, first compound 0.316 µM
[22] = second compound 1 µM, first compound 1 µM
[23] = second compound 1 µM, first compound 3.16 µM
[24] = second compound 1 µM, first compound 10 µM
[25] = second compound 3.16 µM, first compound 0.0316 µM
[26] = second compound 3.16 µM, first compound 0.1 µM
[27] = second compound 3.16 µM, first compound 0.316 µM
[28] = second compound 3.16 µM, first compound 1 µM
[29] = second compound 3.16 µM, first compound 3.16 µM
[30] = second compound 3.16 µM, first compound 10 µM
[31] = second compound 10 µM, first compound 0.0316 µM
[32] = second compound 10 µM, first compound 0.1 µM
[33] = second compound 10 µM, first compound 0.316 µM
[34] = second compound 10 µM, first compound 1 µM
[35] = second compound 10 µM, first compound 3.16 µM
[36] = second compound 10 µM, first compound 10 µM
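Also: spheroids exposed to drugs for seven days before viability read.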
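For viability, T/C in this document: 100% = DMSO vehicle control wells.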

O=C(c1cc(Cc2n[nH]c(=O)c3ccccc23)ccc1F)N1CCN(C(=O)C2CC2)CC1 + Nc1ccc(C#CCN(C(=O)Cc2ncc(C(F)(F)F)cc2C(F)(F)F)c2ccc(F)cc2)nn1
IC50 (second compound 0.0316 µM): > 10 µM
IC50 (second compound 0.1 µM): > 10 µM
IC50 (second compound 0.316 µM): > 10 µM
IC50 (second compound 1 µM): > 10 µM
IC50 (second compound 3.16 µM): > 10 µM
IC50 (second compound 10 µM): > 10 µM
viability, T/C [1]: 87.6%
viability, T/C [2]: 89.3%
viability, T/C [3]: 108%
viability, T/C [4]: 89.5%
viability, T/C [5]: 75.2%
viability, T/C [6]: 76.3%
viability, T/C [7]: 93.7%
viability, T/C [8]: 81%
viability, T/C [9]: 105%
viability, T/C [10]: 73.1%
viability, T/C [11]: 81%
viability, T/C [12]: 60%
viability, T/C [13]: 84.4%
viability, T/C [14]: 85%
viability, T/C [15]: 116%
viability, T/C [16]: 69.3%
viability, T/C [17]: 74.3%
viability, T/C [18]: 53.3%
viability, T/C [19]: 99.3%
viability, T/C [20]: 99.8%
viability, T/C [21]: 107%
viability, T/C [22]: 98.6%
viability, T/C [23]: 111%
viability, T/C [24]: 78.7%
viability, T/C [25]: 92%
viability, T/C [26]: 93.5%
viability, T/C [27]: 95%
viability, T/C [28]: 94.8%
viability, T/C [29]: 94.9%
viability, T/C [30]: 69.2%
viability, T/C [31]: 84.4%
viability, T/C [32]: 94.9%
viability, T/C [33]: 102%
viability, T/C [34]: 98.2%
viability, T/C [35]: 81%
viability, T/C [36]: 85.9%

CC1COCCN1c1cc(C2(S(C)(=N)=O)CC2)nc(-c2ccnc3[nH]ccc23)n1 (stereo not drawn) + Cc1cccc(N(C)C(=O)C2C(O)CCN2c2nc(C)cc(C(F)(F)F)c2C#N)c1
IC50 (second compound 0.0316 µM): 2.89 µM
IC50 (second compound 0.1 µM): 3.05 µM
IC50 (second compound 0.316 µM): 2.44 µM
IC50 (second compound 1 µM): 2.52 µM
IC50 (second compound 3.16 µM): 1.57 µM
IC50 (second compound 10 µM): 2 µM
viability, T/C [1]: 116%
viability, T/C [2]: 91.8%
viability, T/C [3]: 91.4%
viability, T/C [4]: 96.2%
viability, T/C [5]: 46.1%
viability, T/C [6]: 21.4%
viability, T/C [7]: 113%
viability, T/C [8]: 109%
viability, T/C [9]: 86.1%
viability, T/C [10]: 84.5%
viability, T/C [11]: 44.6%
viability, T/C [12]: 20.2%
viability, T/C [13]: 82.6%
viability, T/C [14]: 110%
viability, T/C [15]: 69.1%
viability, T/C [16]: 88.1%
viability, T/C [17]: 38.9%
viability, T/C [18]: 19.9%
viability, T/C [19]: 110%
viability, T/C [20]: 89%
viability, T/C [21]: 97.6%
viability, T/C [22]: 70.1%
viability, T/C [23]: 44.4%
viability, T/C [24]: 21.8%
viability, T/C [25]: 97.7%
viability, T/C [26]: 112%
viability, T/C [27]: 72.3%
viability, T/C [28]: 62.9%
viability, T/C [29]: 36.4%
viability, T/C [30]: 23.5%
viability, T/C [31]: 116%
viability, T/C [32]: 104%
viability, T/C [33]: 117%
viability, T/C [34]: 68%
viability, T/C [35]: 41.2%
viability, T/C [36]: 20.1%

CNCc1ccc(-c2[nH]c3cc(F)cc4c3c2CCNC4=O)cc1 + Nc1ccc(C#CCN(C(=O)Cc2ncc(C(F)(F)F)cc2C(F)(F)F)c2ccc(F)cc2)nn1
IC50 (second compound 0.0316 µM): > 10 µM
IC50 (second compound 0.1 µM): > 10 µM
IC50 (second compound 0.316 µM): > 10 µM
IC50 (second compound 1 µM): > 10 µM
IC50 (second compound 3.16 µM): > 10 µM
IC50 (second compound 10 µM): > 10 µM
viability, T/C [1]: 96.6%
viability, T/C [2]: 104%
viability, T/C [3]: 105%
viability, T/C [4]: 77.2%
viability, T/C [5]: 80%
viability, T/C [6]: 96.1%
viability, T/C [7]: 85.8%
viability, T/C [8]: 80.5%
viability, T/C [9]: 112%
viability, T/C [10]: 91.8%
viability, T/C [11]: 100%
viability, T/C [12]: 96.5%
viability, T/C [13]: 126%
viability, T/C [14]: 102%
viability, T/C [15]: 110%
viability, T/C [16]: 95.7%
viability, T/C [17]: 107%
viability, T/C [18]: 89.2%
viability, T/C [19]: 77.2%
viability, T/C [20]: 78.2%
viability, T/C [21]: 121%
viability, T/C [22]: 86.7%
viability, T/C [23]: 111%
viability, T/C [24]: 127%
viability, T/C [25]: 109%
viability, T/C [26]: 79%
viability, T/C [27]: 110%
viability, T/C [28]: 106%
viability, T/C [29]: 75%
viability, T/C [30]: 104%
viability, T/C [31]: 111%
viability, T/C [32]: 99.5%
viability, T/C [33]: 107%
viability, T/C [34]: 116%
viability, T/C [35]: 106%
viability, T/C [36]: 130%

COc1cc2cc(C(=O)CCC(=O)O)sc2cc1OC + Nc1ccc(C#CCN(C(=O)Cc2ncc(C(F)(F)F)cc2C(F)(F)F)c2ccc(F)cc2)nn1
IC50 (second compound 0.0316 µM): > 10 µM
IC50 (second compound 0.1 µM): > 10 µM
IC50 (second compound 0.316 µM): > 10 µM
IC50 (second compound 1 µM): > 10 µM
IC50 (second compound 3.16 µM): > 10 µM
IC50 (second compound 10 µM): > 10 µM
viability, T/C [1]: 102%
viability, T/C [2]: 101%
viability, T/C [3]: 101%
viability, T/C [4]: 93.6%
viability, T/C [5]: 87.7%
viability, T/C [6]: 84.5%
viability, T/C [7]: 99%
viability, T/C [8]: 92%
viability, T/C [9]: 95.5%
viability, T/C [10]: 108%
viability, T/C [11]: 81.7%
viability, T/C [12]: 87%
viability, T/C [13]: 108%
viability, T/C [14]: 102%
viability, T/C [15]: 89.5%
viability, T/C [16]: 106%
viability, T/C [17]: 113%
viability, T/C [18]: 108%
viability, T/C [19]: 89.6%
viability, T/C [20]: 114%
viability, T/C [21]: 78.4%
viability, T/C [22]: 81.7%
viability, T/C [23]: 110%
viability, T/C [24]: 112%
viability, T/C [25]: 108%
viability, T/C [26]: 90.9%
viability, T/C [27]: 84.1%
viability, T/C [28]: 105%
viability, T/C [29]: 103%
viability, T/C [30]: 81.1%
viability, T/C [31]: 101%
viability, T/C [32]: 95.8%
viability, T/C [33]: 101%
viability, T/C [34]: 103%
viability, T/C [35]: 82%
viability, T/C [36]: 74.5%
